Measured values reported in patent US20080206761A1, “Ex Vivo Gene Expression in Whole Blood as a Model of Assessment of Individual Variation to Dietary Supplements” (priority 2005, published 2008).

What was measured:
Type in all cases: cell-based, human
TNF-α mRNA = assay: PHA-induced TNF-α mRNA expression in heparinized whole blood ex vivo; conditions: for ΔΔCt (mean ± standard deviation, n = 3), TNFα mRNA: supplement 30 min, then 100 μg/mL PHA 2 h, concentrations per footnote
Description: (§1) In this embodiment, phytohemagglutinin-induced gene expression of interleukin-2 (IL-2), interleukin-4 (IL-4), and tumor necrosis factor-α (TNF-α) were quantitated in the following manner. Fifty μL of heparinized whole blood was incubated with various dietary supplements for a period of 30 minutes. The following supplements were employed: vitamins A, C, and D, epigallocatechin gallate (from green tea), genistein (from soy), and curcumin (from the spice turmeric). Vitamin A is known to stimulate the immune system. […] Vitamin D appears to have protective effects against certain cancers. Epigallocatechin gallate is a powerful antioxidant, appears to reduce the multidrug resistance found in cancer cells, and preferentially induces apoptosis in neoplastic cells. Genistein has been found in some studies to have anticarcinogenic activity; possible mechanisms of action include upregulation of apoptosis, inhibition of angiogenesis, inhibition of DNA topoisomerase II and inhibition of protein tyrosine kinases. Curcumin has proapoptotic effects in neoplastic cells and interferes with the activity of the transcription factor NF-κB, which is often highly overexpressed in such cells.
(§2) After incubation with the dietary supplement, 100 μg/mL phytohemagglutinin (PHA) was added and incubation was continued for an additional 2 hours at 37° C. The concentration of each dietary supplement (see Table I, note) was slightly higher than reported blood levels. Then mRNA was purified, cDNA was synthesized, and the levels of IL-2, IL-4, and TNF-α were quantitated by TaqMan real time polymerase chain reaction (PCR) (see Holland, et al., “Detection of specific polymerase chain reaction product by utilizing the 5′ to 3′ exonuclease activity of Thermus aquaticus DNA polymerase,” Proc Natl Acad Sci USA 1991; 88: 7276-80), as described below.
(§3) The mRNA and cDNA were prepared from the whole blood that was exposed to the dietary components, as well as the whole blood which remained unexposed. In brief, home-made 96-well filterplates were placed over collection plates, and 150 μl 5 mM Tris, pH 7.4, was applied. Following centrifugation at 120×g for 1 min at 4° C., 50 μl of blood samples were applied to each well and immediately centrifuged at 120×g for 2 min at 4° C., followed by washing of each well with 300 μl PBS once with centrifugation at 2000×g for 5 min at 4° C. Then, 60 μl stock lysis buffer, containing for example 0.5% N-Lauroylsarcosine, 4×SSC, 10 mM Tris HCl, pH 7.4, 1 mM EDTA, 0.1% IGEPAL CA-630, and 1.791 M guanidine thiocyanate, supplemented with 1% 2-mercaptoethanol (Bio Rad, Hercules, Calif., USA), 0.5 mg/ml proteinase K (Pierce, Rockford, Ill., USA), 0.1 mg/ml salmon sperm DNA (5 Prime Eppendorf/Brinkmann, Westbury, N.Y., USA), 0.1 mg/ml E. coli tRNA (Sigma), a cocktail of 10 mM each of the specific reverse primers shown in Table 2, and standard RNA34 oligonucleotides, were applied to the filterplates, followed by incubation at 37° C. for 10 min. The filterplates were then placed over oligo(dT)-immobilized microplates (GenePlate, RNAture), and centrifuged at 2000×g for 5 min at 4° C. Following overnight storage at 4° C., the microplates were washed with 100 μl plain lysis buffer 3 times, followed by 150 μl of wash buffer (0.5 M NaCl, 10 mM Tris, pH 7.4, 1 mM EDTA) 3 times at 4° C. The cDNA was directly synthesized in each well by adding 30 μl of buffer containing 1×RT-buffer, 1.25 mM each of dNTP, 4 units rRNasin, and 80 units of MMLV reverse transcriptase (Promega) (without primers), and incubation at 37° C. for 2 hours. The specific primer-primed cDNA existed in solution, and oligo(dT)-primed cDNA stayed immobilized in the microplate. […]

IL-2 mRNA = assay: PHA-induced IL-2 mRNA expression in heparinized whole blood ex vivo; conditions: for ΔΔCt (mean ± standard deviation, n = 3), IL-2 mRNA: supplement 30 min, concentrations per footnote
Description: as §1, §2, §3

IL-4 mRNA = assay: PHA-induced IL-4 mRNA expression in heparinized whole blood ex vivo; conditions: for ΔΔCt (mean ± standard deviation, n = 3), IL-4 mRNA: supplement 30 min, then 100 μg/mL PHA 2 h, concentrations per footnote; for effect on PHA-induced IL-4 expression, in words: summary over 7 subjects of Table I
Description: as §1, §2, §3

[1] = tested on: CD32A mRNA (IgG Fc receptor); assay: CD32A mRNA level in leukocytes after exposure of whole blood to dietary components (no stimulating agent); conditions: one individual; 3 hours at 37° C.; PBS control
Description: In brief, home-made 96-well filterplates were placed over collection plates, and 150 μl 5 mM Tris, pH 7.4, was applied. Following centrifugation at 120×g for 1 min at 4° C., 50 μl of blood samples were applied to each well and immediately centrifuged at 120×g for 2 min at 4° C., followed by washing of each well with 300 μl PBS once with centrifugation at 2000×g for 5 min at 4° C. […] The filterplates were then placed over oligo(dT)-immobilized microplates (GenePlate, RNAture), and centrifuged at 2000×g for 5 min at 4° C. Following overnight storage at 4° C., the microplates were washed with 100 μl plain lysis buffer 3 times, followed by 150 μl of wash buffer (0.5 M NaCl, 10 mM Tris, pH 7.4, 1 mM EDTA) 3 times at 4° C. […] The specific primer-primed cDNA existed in solution, and oligo(dT)-primed cDNA stayed immobilized in the microplate. […] Each gene was amplified in separate wells. The Ct was determined by analytical software (SDS, ABI).

[2] = summary over 7 subjects of Table I
[3] = Subject 1, then 100 μg/mL PHA 2 h 37° C., negative = increased expression
[4] = Subject 2, then 100 μg/mL PHA 2 h
[5] = Subject 3, then 100 μg/mL PHA 2 h
[6] = Subject 4, then 100 μg/mL PHA 2 h
[7] = Subject 5, then 100 μg/mL PHA 2 h
[8] = Subject 6, then 100 μg/mL PHA 2 h
[9] = Subject 7, then 100 μg/mL PHA 2 h

Compound: COc1cc(/C=C/C(=O)CC(=O)/C=C/c2ccc(O)c(OC)c2)ccc1O [Cur., curcumin]
- ΔΔCt (mean ± standard deviation, n = 3), TNFα mRNA (TNF-α mRNA; Subject 1): 3.52 ± 1.84
- ΔΔCt (mean ± standard deviation, n = 3), TNFα mRNA (TNF-α mRNA; Subject 2): 3.64 ± 2.26
- ΔΔCt (mean ± standard deviation, n = 3), TNFα mRNA (TNF-α mRNA; Subject 3): 0.83 ± 0.60
- ΔΔCt (mean ± standard deviation, n = 3), TNFα mRNA (TNF-α mRNA; Subject 4): 0.45 ± 0.15
- ΔΔCt (mean ± standard deviation, n = 3), TNFα mRNA (TNF-α mRNA; Subject 5): 0.13 ± 0.17
- ΔΔCt (mean ± standard deviation, n = 3), TNFα mRNA (TNF-α mRNA; Subject 6): 0.07 ± 0.01
- ΔΔCt (mean ± standard deviation, n = 3), TNFα mRNA (TNF-α mRNA; Subject 7): 0.12 ± 0.21
- effect on PHA-induced TNF-α expression, in words (TNF-α mRNA; [2]): significantly decreased IL-2, IL-4, and TNF-α expression in 2 cases
- ΔΔCt (mean ± standard deviation, n = 3), IL-2 mRNA (IL-2 mRNA; [3]): 1.47 ± 0.59
- ΔΔCt (mean ± standard deviation, n = 3), IL-2 mRNA (IL-2 mRNA; [4]): 2.51 ± 0.23
- ΔΔCt (mean ± standard deviation, n = 3), IL-2 mRNA (IL-2 mRNA; [5]): 0.31 ± 0.14
- ΔΔCt (mean ± standard deviation, n = 3), IL-2 mRNA (IL-2 mRNA; [6]): 0.33 ± 0.27
- ΔΔCt (mean ± standard deviation, n = 3), IL-2 mRNA (IL-2 mRNA; [7]): 0.03 ± 0.20
- ΔΔCt (mean ± standard deviation, n = 3), IL-2 mRNA (IL-2 mRNA; [8]): 0.01 ± 0.14
- ΔΔCt (mean ± standard deviation, n = 3), IL-2 mRNA (IL-2 mRNA; [9]): −0.01 ± 0.21
- effect on PHA-induced IL-2 expression, in words (IL-2 mRNA; [2]): significantly decreased IL-2, IL-4, and TNF-α expression in 2 cases
- ΔΔCt (mean ± standard deviation, n = 3), IL-4 mRNA (IL-4 mRNA; Subject 1): 1.27 ± 0.78
- ΔΔCt (mean ± standard deviation, n = 3), IL-4 mRNA (IL-4 mRNA; Subject 2): 3.09 ± 0.15
- ΔΔCt (mean ± standard deviation, n = 3), IL-4 mRNA (IL-4 mRNA; Subject 3): −0.01 ± 0.07
- ΔΔCt (mean ± standard deviation, n = 3), IL-4 mRNA (IL-4 mRNA; Subject 4): 0.10 ± 0.27
- ΔΔCt (mean ± standard deviation, n = 3), IL-4 mRNA (IL-4 mRNA; Subject 5): 0.00 ± 0.20
- ΔΔCt (mean ± standard deviation, n = 3), IL-4 mRNA (IL-4 mRNA; Subject 6): 0.10 ± 0.13
- ΔΔCt (mean ± standard deviation, n = 3), IL-4 mRNA (IL-4 mRNA; Subject 7): 0.52 ± 0.26
- effect on PHA-induced IL-4 expression, in words (IL-4 mRNA): significantly decreased IL-2, IL-4, and TNF-α expression in 2 cases

Compound: O=C1O[C@H]([C@@H](O)CO)C(O)=C1O [VC, vitamin C]
- ΔΔCt (mean ± standard deviation, n = 3), TNFα mRNA (TNF-α mRNA; Subject 1): −1.82 ± 0.65
- ΔΔCt (mean ± standard deviation, n = 3), TNFα mRNA (TNF-α mRNA; Subject 2): 0.10 ± 1.14
- ΔΔCt (mean ± standard deviation, n = 3), TNFα mRNA (TNF-α mRNA; Subject 3): −0.04 ± 0.27
- ΔΔCt (mean ± standard deviation, n = 3), TNFα mRNA (TNF-α mRNA; Subject 4): 0.09 ± 0.16
- ΔΔCt (mean ± standard deviation, n = 3), TNFα mRNA (TNF-α mRNA; Subject 5): −1.21 ± 0.14
- ΔΔCt (mean ± standard deviation, n = 3), TNFα mRNA (TNF-α mRNA; Subject 6): −0.48 ± 0.04
- ΔΔCt (mean ± standard deviation, n = 3), TNFα mRNA (TNF-α mRNA; Subject 7): −0.40 ± 0.15
- ΔΔCt (mean ± standard deviation, n = 3), IL-2 mRNA (IL-2 mRNA; [3]): −0.18 ± 0.54
- ΔΔCt (mean ± standard deviation, n = 3), IL-2 mRNA (IL-2 mRNA; [4]): 0.00 ± 0.60
- ΔΔCt (mean ± standard deviation, n = 3), IL-2 mRNA (IL-2 mRNA; [5]): 1.04 ± 0.21
- ΔΔCt (mean ± standard deviation, n = 3), IL-2 mRNA (IL-2 mRNA; [6]): 1.47 ± 0.19
- ΔΔCt (mean ± standard deviation, n = 3), IL-2 mRNA (IL-2 mRNA; [7]): −0.80 ± 0.13
- ΔΔCt (mean ± standard deviation, n = 3), IL-2 mRNA (IL-2 mRNA; [8]): 1.02 ± 0.05
- ΔΔCt (mean ± standard deviation, n = 3), IL-2 mRNA (IL-2 mRNA; [9]): 0.07 ± 0.27
- ΔΔCt (mean ± standard deviation, n = 3), IL-4 mRNA (IL-4 mRNA; Subject 1): −2.20 ± 0.72
- ΔΔCt (mean ± standard deviation, n = 3), IL-4 mRNA (IL-4 mRNA; Subject 2): −0.86 ± 0.62
- ΔΔCt (mean ± standard deviation, n = 3), IL-4 mRNA (IL-4 mRNA; Subject 3): −0.77 ± 0.40
- ΔΔCt (mean ± standard deviation, n = 3), IL-4 mRNA (IL-4 mRNA; Subject 4): −0.43 ± 0.17
- ΔΔCt (mean ± standard deviation, n = 3), IL-4 mRNA (IL-4 mRNA; Subject 5): −1.22 ± 0.17
- ΔΔCt (mean ± standard deviation, n = 3), IL-4 mRNA (IL-4 mRNA; Subject 6): −0.77 ± 0.09
- ΔΔCt (mean ± standard deviation, n = 3), IL-4 mRNA (IL-4 mRNA; Subject 7): −1.30 ± 0.22
- effect on PHA-induced IL-4 expression, in words (IL-4 mRNA): enhanced IL-4 expression, with 1-3 exceptions

Compound: CCCCC/C=C\C/C=C\C/C=C\CCCCC(=O)O [γ-linoleic acid, γ-linoleic acids]
- conclusion from CD32A mRNA levels (FIG. 2), in words [1]: would be suitable for use in this individual in a diet optimized for anti-cancer activity

Compound: vitamin E
- conclusion from CD32A mRNA levels (FIG. 2), in words [1]: would be suitable for use in this individual in a diet optimized for anti-cancer activity
